From PubChem BioAssay (NCI)
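Exposure lasted 48 hours, with cells grown in 96-well plates and compounds tested at five concentrations. Definition used: TGI = concentration required for complete inhibition of growth.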

Key:
Assay in all cases: NCI tumour cell line growth inhibition, 48 h
HOP-18 NSCLC = tested on: HOP-18 NSCLC
DLD-1 colon = tested on: DLD-1 colon
LXFL 529 NSCLC = tested on: LXFL 529 NSCLC
M19-MEL melanoma = tested on: M19-MEL melanoma
SNB-78 CNS = tested on: SNB-78 CNS
RXF-631 renal = tested on: RXF-631 renal
P388/ADR leukemia = tested on: P388/ADR leukemia
P388 leukemia = tested on: P388 leukemia
SN12K1 renal = tested on: SN12K1 renal

Measured: TGI

CC1(O)CC2C(CC1SCCO)C2(C)C (configuration not stated)
> 100 µM: HOP-18 NSCLC | DLD-1 colon | LXFL 529 NSCLC | M19-MEL melanoma | SNB-78 CNS

C=C1c2c(cc3c(c2O)c(=O)c2ccccc2n3C)OC1(C)C
> 100 µM: HOP-18 NSCLC | DLD-1 colon | LXFL 529 NSCLC | M19-MEL melanoma | SNB-78 CNS | RXF-631 renal

NC(=O)CCC(NCc1c2ccccc2[n+]([O-])c2ccccc12)C(=O)O (configuration not stated)
> 100 µM: HOP-18 NSCLC | DLD-1 colon | LXFL 529 NSCLC | M19-MEL melanoma | SNB-78 CNS

Cc1ccc(C(=O)C(C)N)cc1 (configuration not stated)
> 100 µM: HOP-18 NSCLC | DLD-1 colon | LXFL 529 NSCLC | SNB-78 CNS

O=C(NO)c1coc2ccccc2c1=O
> 100 µM: DLD-1 colon | LXFL 529 NSCLC | SNB-78 CNS | RXF-631 renal

CC(C)(C)[Si](C)(C)OCCCC#CCO
> 100 µM: DLD-1 colon | LXFL 529 NSCLC | SNB-78 CNS | RXF-631 renal

Cc1c(-c2cc3n(n2)C(c2cccs2)C(C#N)=C(c2ccccc2)N3)c(=O)n(-c2ccccc2)n1C (configuration not stated)
> 100 µM: HOP-18 NSCLC | DLD-1 colon | P388/ADR leukemia | P388 leukemia | M19-MEL melanoma | SNB-78 CNS | SN12K1 renal

COC(OC)c1cccc2c1C1(O)CCC3(CC21)OCCCCO3 (configuration not stated)
> 100 µM: HOP-18 NSCLC | DLD-1 colon | LXFL 529 NSCLC | M19-MEL melanoma | SNB-78 CNS

O=P(O)(O)C(CSc1ccccc1)P(=O)(O)O
> 100 µM: HOP-18 NSCLC | DLD-1 colon | P388/ADR leukemia | P388 leukemia | M19-MEL melanoma | SNB-78 CNS | SN12K1 renal
